In patent publication US11202815B2, “Composition for preventing, treating or improving prostate disease containing acanthopanax sessiliflorus, phragmites rhizome, and pinus densiflora extracts as active ingredient” (GENOME & MEDICINE CO., LTD., priority 2017, dated 2021):

System: 5α-reductase type 2 (SRD5A2)
Experiment: Western blotting of 5α-reductase type 2 (SRD5A2) protein expression level
Type: cell-based
Conditions: 0.40 mM, cultured for 24 hours, FIG. 8
Method: 5α-reductase had total three types of subtypes (types 1, 2 and 3), in which types 1 and 3 have been studied for diseases such as male hair loss or acne and type 2 was directly associated with benign prostatic hyperplasia.
As a result, in Example 6, a 5α-reductase type 2 (SRD5A2) protein expression level was analyzed by Western blotting to confirm 5α-reductase inhibitory activity.
Specifically, the cells were divided at a concentration of 2.0×10^5 cell/well and treated with 100 μg/ml of the Acanthopanax sessiliflorus extract, 600 μg/ml of the Pinus densiflora extract, 600 μg/ml of the Phragmites rhizome extract, or 350 μg/ml of the complex extract (Extract 4) obtained by mixing the extracts at 4:2:1 in a PRMI1640 medium containing 1% fetal bovine serum (FBS), and then cultured for 24 hours.
Finasteride, which has been sold as a 5α-reductase inhibitor on the market, was used as a positive control.
Then, the cultured cells were lysed, filtered with a 0.45 μm mesh, and subjected to Western blotting according to a procedure shown in FIG. 7.
Specifically, a primary antibody (Anti-SRD5A2, Sigma) was diluted to 1:200 and treated, and a secondary antibody (m-IgGP-HRP, Santa Cruz) was diluted to 1:3000 and treated, and then the expression levels of 5α-reductase type 2 according to treatment of each extract and each compound were confirmed.

**Q.** With `COc1cc([C@@H]2OC[C@@H]3[C@H]2CO[C@H]3c2cc(OC)c(O[C@@H]3O[C@H](CO)[C@@H](O)[C@H](O)[C@H]3O)c(OC)c2)cc(OC)c1O[C@@H]1O[C@H](CO)[C@@H](O)[C@H](O)[C@H]1O` [acanthoside D] as the compound, how does the “expression levels of 5α-reductase type 2” value read?
**A.** The value was “significantly reduced”.

**Q.** Which “expression levels of 5α-reductase type 2” value does the source give for `O=C(O)/C=C/c1ccc(O)cc1` [p-coumaric acid] here?
**A.** Its value is “significantly reduced”.
